Where “and” joins values, the source holds several entries; their conditions need not be identical. Equal entries are not always repeated.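 The compound was tested at five concentrations on cells cultured in 96-well plates, with a 48-hour exposure period. GI50 marks 50% less growth.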 Calls of active or inactive are those of the source. No stated cut-off is given here; in the data, active = GI50 up to about 1.1 µM and inactive = higher.
How the values were obtained:
Assay in all cases: NCI tumour cell line growth inhibition, 48 h
DLD-1 = test system: DLD-1
RXF 631 = test system: RXF 631
SNB-78 = test system: SNB-78
XF498 = test system: XF498
DMS-273 = test system: DMS-273
HOP-18 = test system: HOP-18
LXFL 529 = test system: LXFL 529
KM-20L2 = test system: KM-20L2
DMS-114 = test system: DMS-114

Structure (SMILES)	GI50 (DLD-1)	GI50 (RXF 631)	GI50 (SNB-78)	GI50 (XF498)	GI50 (DMS-273)	GI50 (HOP-18)	GI50 (LXFL 529)	GI50 (KM-20L2)	GI50 (DMS-114)
O=C(NC(=O)c1c(F)cccc1F)Nc1cccc(Oc2ncc(Cl)cn2)c1	> 100 µM (inactive)	> 100 µM (inactive)	> 100 µM (inactive)	19.7 µM (inactive)	2.45 µM (inactive)	> 100 µM (inactive)	> 91 µM (inactive)		
COC(=O)CCC1CCc2c(OC)ccc(OC)c2C1=O (centres undefined)	> 100 µM (inactive)		> 100 µM (inactive)		> 100 µM (inactive)		> 100 µM (inactive)	> 100 µM (inactive)	> 100 µM (inactive)
CSC1CC2C(CC1(C)O)C2(C)C (centres undefined)	> 100 µM (inactive)		> 100 µM (inactive)		> 100 µM (inactive) and 69.3 µM (inactive)		> 100 µM (inactive)	> 100 µM (inactive) and 74.8 µM (inactive)	
Nc1ccc(Sc2c3ccccc3nc3ccccc23)cc1	6 µM (inactive)		22.4 µM (inactive)	14.4 µM (inactive)	14.1 µM (inactive)	22.3 µM (inactive)	7.96 µM (inactive)	16.7 µM (inactive)	18.2 µM (inactive)
Cc1nc2ccccc2c(=O)n1NC(=S)Nc1cccc(Cl)c1	> 100 µM (inactive)				> 100 µM (inactive)	> 100 µM (inactive)	> 100 µM (inactive)		
CC1=N/C(=C\c2c(O)ccc3ccccc23)C(=O)O1	> 100 µM (inactive)		> 100 µM (inactive)			> 100 µM (inactive)	> 100 µM (inactive)	> 100 µM (inactive)	> 100 µM (inactive)
[N-]=[N+]=NC1C2CC3CC(C2)CC1C3 (centres undefined)		> 100 µM (inactive)	> 100 µM (inactive)		> 100 µM (inactive)	> 100 µM (inactive)	> 100 µM (inactive)	> 100 µM (inactive)	> 100 µM (inactive)
COc1cc([C@@H]2c3cc4c(cc3[C@@H](NC(=O)c3cccc([N+](=O)[O-])c3)C3COC(=O)[C@@H]32)OCO4)cc(OC)c1O (some centres undefined)	3.33 µM (inactive)	1.31 µM (inactive)	4.73 µM (inactive)		0.149 µM (active)		10.3 µM (inactive)	2.82 µM (inactive)	0.548 µM (active)
COc1ccc(C(=O)C(c2ccc(OC)cc2)C2OC(=O)C(Cl)=C2Cl)cc1 (centres undefined)	> 100 µM (inactive)		> 100 µM (inactive)	> 100 µM (inactive)		> 100 µM (inactive)	> 100 µM (inactive)		> 100 µM (inactive)
O/N=C/c1cc2c(cc1Br)OCO2	> 100 µM (inactive)	> 100 µM (inactive)	> 100 µM (inactive)		> 100 µM (inactive)	> 100 µM (inactive)	> 100 µM (inactive)	> 100 µM (inactive)	
OCC(O)C(OC1OC(CO)C(O)C(O)C1O)c1nn(-c2ccc(Cl)cc2)c2nc3cc(Cl)c(Cl)cc3nc12 (centres undefined)	> 100 µM (inactive)		> 100 µM (inactive)	> 100 µM (inactive)			> 100 µM (inactive)	> 100 µM (inactive)	> 100 µM (inactive)
COC(=O)c1cccn1C(=O)n1cccc1	> 100 µM (inactive)		> 100 µM (inactive)	> 100 µM (inactive)	> 100 µM (inactive)	> 100 µM (inactive)	> 100 µM (inactive)	> 100 µM (inactive)	> 100 µM (inactive)
CC(c1ccccc1)N1CC(C)(c2ccccc2)N(O)C(c2ccccc2)C1C (centres undefined)	23.7 µM (inactive)	12.6 µM (inactive)	15.1 µM (inactive)		7.93 µM (inactive)	17.7 µM (inactive)	9.06 µM (inactive)	4.39 µM (inactive)	5.33 µM (inactive)
Clc1ccc(OCCSCCCCCCCCCCSCCOc2ccc(Cl)cc2)cc1	> 100 µM (inactive)		> 100 µM (inactive)		> 100 µM (inactive)	> 100 µM (inactive)		> 100 µM (inactive)	> 100 µM (inactive)
CN1CCCC2[C@@H]3CCC4=C(O)C(=O)CC[C@]4(C)C3CC[C@@]21C (some centres undefined)		> 100 µM (inactive)		> 100 µM (inactive)	> 100 µM (inactive)	> 100 µM (inactive)	> 100 µM (inactive)	> 100 µM (inactive)	> 100 µM (inactive)
CC(C)(C)c1nc2c(o1)C(=O)c1ccccc1C2=O	5.83 µM (inactive)	5.92 µM (inactive)	11.5 µM (inactive)	2.67 µM (inactive)	5.08 µM (inactive)	7.19 µM (inactive)	6.44 µM (inactive)	22.1 µM (inactive)	2.23 µM (inactive)
COC(=O)C12C3C4C1C1C2C3C41C(=O)OC(C)(C)C (centres undefined)	> 47.9 µM (inactive)	> 100 µM (inactive)	> 100 µM (inactive)	> 100 µM (inactive)	> 44.1 µM (inactive)	> 100 µM (inactive)	> 100 µM (inactive)	> 100 µM (inactive)	> 44.8 µM (inactive)
CCN(CC)CCOC(=O)Cc1cccc2c(=O)cc(-c3ccccc3)oc12	94.8 µM (inactive)		84.9 µM (inactive)	18 µM (inactive)	361 µM (inactive)	78.2 µM (inactive)		95.3 µM (inactive)	31.8 µM (inactive)
COC(=O)C(C(=O)C(=O)Nc1cccc(O)c1)c1nc2ccc(Cl)cc2nc1O (centres undefined)	> 100 µM (inactive)	> 100 µM (inactive)	> 100 µM (inactive)			98.9 µM (inactive)	> 100 µM (inactive)	> 100 µM (inactive)	> 100 µM (inactive)
Cc1cc2c(=O)cc(-c3ccc(C(F)(F)F)cc3)oc2c(C(=O)O)c1C	> 100 µM (inactive)	> 100 µM (inactive)	> 100 µM (inactive)	> 100 µM (inactive)	> 100 µM (inactive)	> 100 µM (inactive)	> 100 µM (inactive)	> 100 µM (inactive)	> 100 µM (inactive)
O=S(=O)(O)C1=C2Sc3ccccc3N=C2c2ccccc2C1	15.3 µM (inactive)	16 µM (inactive)	17.8 µM (inactive)	17.7 µM (inactive)	15.5 µM (inactive)	12.4 µM (inactive)	12.2 µM (inactive)	18.4 µM (inactive)	10.3 µM (inactive)
c1ccc(C2[C@@H]3CCCc4ccccc4C3=NN2c2ccccc2)cc1 (some centres undefined)	51.6 µM (inactive)		> 100 µM (inactive)	28.2 µM (inactive)			53.2 µM (inactive)	> 100 µM (inactive)	> 100 µM (inactive)
Oc1cc(-c2ccccn2)nc2ccc(Cl)cc12	41.5 µM (inactive)		80.7 µM (inactive)	21.5 µM (inactive)		57.5 µM (inactive)	27.3 µM (inactive)		
